The results in this text go back to patent publication US20060148732A1, “Inhibition of NF-kappaB by triterpene compositions” (priority 2000, published 2006).

Series [1] concerns Jurkat (T-cell leukemia) cells. As to the kind of experiment: Cytotoxicity screen (MTT/crystal violet, 72 h). The format is cell-based, human. As to conditions: for inhibitory concentration 50 (IC50), growth inhibition: MTT, 72 hours. As to the method: Each of the extracts was then screened against a panel of human tumor and non-tumor cells including human ovarian cancer cell lines, T-leukemic cells, human epidermoid cells, human breast cancer cells, human prostate cancer cells, human foreskin fibroblast cells, human endothelial cells, and human renal cancer cells. The cells were first plated in 96-well plates for 18-24 hours at 37° C. The cells were then exposed to varying concentrations of the plant extracts, and incubated for 72 hours at 37° C., and stained with either MTT (3-(4,5-dimethylethiazol-2-yl)-2,5-diphenyl tetrazolium bromide; Sigma Chemical Co.) for 4 hours or crystal violet (Sigma Chemical Co.) for 20 minutes at room temperature. The MTT plates received lysis buffer (20% sodium dodecyl sulfate in 50% DMF) and were incubated for an additional 6 hours before taking an OD reading at 570 nm. The crystal violet plates were washed, dye was extracted for 3-4 hours with Sorenson's buffer (0.1 M sodium citrate (pH 4.2), 50% v/v ethanol), and the plates were read at 570-600 nm (Mujoo et al., 1996). Cytotoxicity of the screened extracts was indicated by comparing the OD readings between the treated media alone and the cells treated with the plant extract. Percent cytotoxicity was calculated by 100-% of control, where % of control =[((OD of cells treated with plant extract (treated sample))/(OD of cells exposed to media alone (untreated sample)))×100].
Assay for Growth Inhibition. The growth inhibitory activity of F094 and avicins was measured by the MTT [3-(4, 5-Dimethylthiazol-2-yl)-2, 5-diphenyl tetrazolium bromide)] reduction assay (Deng et al., 1999). Cells (1×10^4/well) were cultured with varying concentrations of F094, avicin D, or avicin G in 96 well plates for 72 hours at 37° C. The cells were stained with MTT for 2 hours and then incubated with lysis buffer (20% sodium dodecyl sulfate in 50% N,N-dimethylformamide) for another 6 hours. Optical density at 570 nm was used as a measure of cell viability.

Another series relates to NF-κB in Jurkat cells. As to the kind of experiment: EMSA of TNF-induced NF-κB activation. The class given is cell-based, human. As to conditions: for TNF-induced NF-κB activation: Jurkat cells; for decrease in NF-κB levels: pretreatment with 2 ml (so in the source), TNF 100 pM. On the procedure: Next, in order to further study the mechanism by which the active components inhibited tumor cells, the TNF-alpha induced activation of the transcription factor NF-κB was analyzed in Jurkat cells (3×10^6) which had been treated with 1-2 μg/ml of UA-BRF-004-DELEP-F035 and UA-BRF-004Pod-DELEP-F094. The study was carried out as follows: Jurkat cells were pretreated with 1-2 μg/ml of F035 or F094 for 15 h at 37° C. Cells were harvested and resuspended in 1 ml RPMI and treated with 100 pM of TNF-alpha for 30 min at 37° C. After TNF-alpha treatment, nuclear extracts were prepared according to Schreiber et al (1989). Briefly, the cells were washed with ice cold PBS and suspended in 0.4 ml of lysis buffer (10 mM HEPES, pH 7.9, 10 mM KCl, 0.1 mM EDTA, […], 0.1 mM EGTA, 1 mM dithiothreitol, 0.5 mM PMSF, 2 μg/ml of leupeptin, 2 μg/ml of aprotinin and 0.5 mg/ml benzamidine). The cells were allowed to sit on ice for 15 min and 25 μl of 10% Nonidet-40 was added to the cells. The tubes were mixed on the vortex and microcentrifuged for 30 s. The nuclear pellet was resuspended in 25 μl of ice cold nuclear extraction buffer (20 mM HEPES, pH 7.9, 0.4 M NaCl, 1 mM EDTA, 1 mM EGTA, 1 mM dithiothreitol, 1 mM PMSF, 2 μg/ml leupeptin, 2.0 μg/ml aprotinin and 0.5 mg/ml benzamidine) and tubes were incubated on ice with intermittent agitation. The nuclear extract was microcentrifuged for […] at 4° C. and supernatants were stored at −70° C.
An electrophoretic mobility shift assay was performed by incubating the nuclear extracts (7 μg of protein) with ^32P-labeled NF-κB oligonucleotides (SEQ ID NO:1; NF-κB consensus oligonucleotide; Santa Cruz Biotechnology) in presence of 0.5 μg of poly di-dc in a binding buffer (25 mM HEPES, pH 7.9, 0.5 mM EDTA, 0.5 mM dithiothreitol, 1% Nonidet P-40, 5% glycerol and 50 mM NaCl for 20 min at 37° C.) (Nabel and Baltimore, 1987; Collart et al., 1990; Hassanain et al., 1993). The DNA-protein complex formed was separated from free oligonucleotide on 5% native polyacrylamide gel using buffer containing 50 mM Tris, 200 mM glycine and 1 mM EDTA. The gel was fixed in 10% acetic acid and dried and the bands were visualized using autoradiography with intensifying screen at −70° C.
An EMSA to study the effect of crude (F035) and pure extracts D1 and G1 on TNF (Genetech Inc.) induced NF-κB was done as described earlier. Jurkat cells (1×10^6/ml) were treated with different concentrations of crude and pure extracts for 15 hr at 37° C. Next the cells were exposed to 100 pM of TNF for 15 min at 37° C. Nuclear extracts were prepared as described before. Nuclear extracts were incubated with 16 fmol ^32P-end-labeled 45-mer double-stranded NF-κB oligonucleotide from the human immunodeficiency virus long terminal repeat,
for 15 min at 37° C. in the presence of 2 μg of poly (dI-dC). The DNA protein complex was separated from free oligonucleotide on 7.5% native polyacrylamide gels. The radioactive bands from the dried gels were visualized and quantitated by a PhosphoImager (Molecular Dynamics, Sunnyvale, Calif.) using ImageQuant software.
Treatment of Cells with Monoterpene Glycosides. Jurkat cells were taken at 1×10^6/ml in complete medium and treated with 2 μg/ml of F094, monoterpene/triterpene glycoside D1, or monoterpene/triterpene glycoside G1 for 8-16 h at 37° C. At the end of the treatment, cells were washed in complete medium and counted. An equal number of viable cells was used for different experiments.
Preparation of Cytoplasmic and Nuclear Extracts. Jurkat cells (2×10^6/ml) treated with F094 or the isolated monoterpene/triterpene glycosides G1 and/or D1 were exposed to TNF (1 nM for 15 min) at 37° C. After washing the cells in cold PBS, they were suspended in 0.4 ml of cytoplasmic extraction buffer (10 mM HEPES, pH 7.9, 10 mM KCl, 0.1 mM EDTA, 0.1 mM EGTA, 1 mM DTT, 0.5 mM phenylmethylsulfonylfluoride (PMSF), 2 μg/ml of leupeptin, 2 μg/ml aprotinin, 0.5 mg/ml benzamidine) for 15 min on ice. […]

`C=C[C@](C)(O)CC/C=C(\C)C(=O)O[C@H]1[C@H](O)[C@@H](O)[C@H](O[C@@](C)(C=C)CC/C=C(\CO)C(=O)O[C@H]2C[C@]3(C(=O)O[C@@H]4O[C@H](CO)[C@@H](O)[C@H](O)[C@H]4O[C@@H]4O[C@@H](C)[C@H](O[C@@H]5O[C@@H](CO)[C@H](O)[C@H]5O)[C@@H](O[C@@H]5O[C@H](CO)[C@@H](O)[C@H](O)[C@H]5O)[C@H]4O)[C@H](O)C[C@]4(C)C(=CC[C@@H]5[C@@]6(C)CC[C@H](O[C@@H]7O[C@H](CO[C@@H]8O[C@H](C)[C@H](O)[C@H](O)[C@H]8O[C@@H]8OC[C@@H](O)[C@H](O)[C@H]8O)[C@@H](O)[C@H](O)[C@H]7NC(C)=O)C(C)(C)[C@@H]6CC[C@]54C)[C@@H]3CC2(C)C)O[C@@H]1C` [Fraction G1]: the “inhibitory concentration 50 (IC50), growth inhibition” value in series [1] was 0.160 to 0.181 µg/mL. Further, the “Cytotoxicity IC50” value in series [1] (pH 6.5) was found to be 0.3 µg/mL. In series [1] (pH 7.5), the “Cytotoxicity IC50” value came to 0.49 µg/mL. Besides, in the series with NF-κB in Jurkat cells (Jurkat), the “potency in inhibiting TNF-induced NF-κB relative to mixture” value is “more potent than the mixture” and the “decrease in NF-κB levels” value is on record as 54%. Also, in the series with NF-κB in Jurkat cells, the “TNF-induced NF-κB activation” value is given as “potent inhibitors”. In addition, in the series on NF-κB in Jurkat cells (Jurkat, 0.5 μg/ml for 16 h, TNF 1 nM), the “decrease in TNF-induced NF-κB” value was about 50%. For the same compound, in the series on NF-κB in Jurkat cells (Jurkat, 2 μg/ml for 8 h), the “effect of DTT (100 μM, 2 h pretreatment) on inhibition of NF-κB activation” value is listed as “reversed”. Also, the “inhibition of TNF-induced NF-κB” value in the series on NF-κB in Jurkat cells (Jurkat, 2 μg/ml for 16 h, TNF 1 nM) is “almost complete inhibition”. Moreover, in the series on NF-κB in Jurkat cells (Jurkat, 2 μg/ml, 1-16 hours, TNF 1 nM), the “time of maximal inhibition of TNF-induced NF-κB” value was 16 h.

On to `C=C[C@](C)(O)CC/C=C(\CO)C(=O)O[C@H]1[C@H](O)[C@@H](O)[C@H](O[C@@](C)(C=C)CC/C=C(\CO)C(=O)O[C@H]2C[C@]3(C(=O)O[C@@H]4O[C@H](CO)[C@@H](O)[C@H](O)[C@H]4O[C@@H]4O[C@@H](C)[C@H](O[C@@H]5O[C@@H](CO)[C@H](O)[C@H]5O)[C@@H](O[C@@H]5O[C@H](CO)[C@@H](O)[C@H](O)[C@H]5O)[C@H]4O)[C@H](O)C[C@]4(C)C(=CC[C@@H]5[C@@]6(C)CC[C@H](O[C@@H]7O[C@H](CO[C@@H]8O[C@H](C)[C@H](O)[C@H](O)[C@H]8O[C@@H]8OC[C@@H](O)[C@H](O)[C@H]8O)[C@@H](O)[C@H](O)[C@H]7NC(C)=O)C(C)(C)[C@@H]6CC[C@]54C)[C@@H]3CC2(C)C)O[C@@H]1C` [Fraction D1], for which the “inhibitory concentration 50 (IC50), growth inhibition” value in series [1] lay in the range of 0.320 to 0.326 µg/mL. For the same compound, the “Cytotoxicity IC50” value in series [1] (pH 6.5) amounted to 1.01 µg/mL; in series [1] (pH 7.5), 0.98 µg/mL. In addition, the “TNF-induced NF-κB activation” value in the series on NF-κB in Jurkat cells was “potent inhibitors”. In addition, the “decrease in NF-κB levels” value in the series with NF-κB in Jurkat cells (Jurkat) amounted to 87%.
